{
  "source": "patent US20100009957A1",
  "about": "“NOVEL INHIBITORS OF BETA-LACTAMASE” (priority 2006, published 2010)",
  "key": {"[1]": {"target": "AmpC (P. aeruginosa.) (Pseudomonas aeruginosa, UniProt P24735)", "sequence (P24735 27-397)": "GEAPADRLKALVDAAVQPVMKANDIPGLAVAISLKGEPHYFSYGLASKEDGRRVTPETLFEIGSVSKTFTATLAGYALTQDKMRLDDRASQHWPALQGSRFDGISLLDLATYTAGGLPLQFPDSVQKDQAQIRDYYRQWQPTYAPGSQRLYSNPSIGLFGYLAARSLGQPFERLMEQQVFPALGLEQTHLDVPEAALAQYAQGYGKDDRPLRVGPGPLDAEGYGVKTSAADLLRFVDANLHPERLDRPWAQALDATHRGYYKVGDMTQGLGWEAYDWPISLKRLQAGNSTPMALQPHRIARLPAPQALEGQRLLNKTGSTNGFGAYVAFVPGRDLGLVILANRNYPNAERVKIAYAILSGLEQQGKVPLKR", "assay": "biochemical", "conditions": "nitrocefin substrate, pH 7", "description": "The Class C enzyme activities were measured in the presence of the test inhibitor in spectrophotometric assay against the commercially available substrate, nitrocefin. The enzyme AmpC (P. aeruginosa.), and the substrate, were dissolved in 100 mM KH2PO4 buffer (pH 7). The buffer also contains 0.005% BSA. The test inhibitor was dissolved in DMSO and diluted 1:20 in the assay, resulting in a final concentration range of 50 μM to 0.0002 μM. In a 96-well microplate, the test inhibitor was incubated with the beta-lactamase enzyme for 40 minutes at ambient temperature, the substrate solution was added, and the incubation continued for another 40 minutes. The spectrophotomertric reaction was quenched by the addition of 2.5N acetic acid and the absorbance at 492 nm was measured. The IC50 value was determined from semi logarithmic plots of enzyme inhibition versus inhibitor concentration, with a curve generated using a 4-parameter fit."}, "[2]": {"tested_on": "P. aeruginosa strain CL5701", "assay": "Synergy assay (checkerboard) with imipenem", "assay_type": "cell-based, Pseudomonas aeruginosa", "conditions": "for In Vitro 2X Synergy CL5701: concentration for 2X synergy with imipenem against P. aeruginosa strain CL5701; for In Vitro 8X Synergy CL5701: concentration for 8X synergy with imipenem against P. aeruginosa strain CL5701; for In Vitro 16X Synergy CL5701: concentration for 16X synergy with imipenem against P. aeruginosa strain CL5701", "excerpt": "The assay determines the concentration of a β-lactamase inhibitor required to reduce the MIC of a β-lactam antibiotic by one-half, one-quarter, one-eighth, one-sixteenth and one-thirty-second against strains of bacteria normally resistant to the antibiotic in question. This is accomplished by titrating the BLI in a serial dilution across a microtiter plate while at the same time titrating the antibiotic in a serial dilution down the microtiter plate and then inoculating the plate with the bacterial strain in question and allowing the bacteria to grow up overnight. Each well in this microplate checkerboard contains a different combination of concentrations of the inhibitor and the antibiotic allowing a full determination of any synergy between the two.\n• CL 5701 (Pseudomonas aeruginosa; Pa AmpC)/Imipenem • MB 2646 (Enterobacter cloacae; P99)/Ceftazidime • CL 5513 (Klebsiella pneumoniae; SHV-5)/Ceftazidime • CL 6188 (Acinetobacter baumanii; Oxa40)/Imipenem • CL 6569 (Klebsiella pneumoniae; KPC-2)/Imipenem • CL 5761 (Klebsiella pneumoniae; KPC-3)/Imipenem • CLB 21648 (Acinetobacter baumanii; Ab AmpC)/Imipenem\n• 1. […] All wells in row A of MIC 2000 microtiter plates are filled with 100 μL of 2× MHBII+2% DMSO. • 3. […] 100 μL of 2× the final antibiotic concentration wanted is added to wells A2-A12 of the MIC 2000 plates. • 5. 100 μL is serially diluted from row A to row G of each MIC 2000 plate. • 6. 100 μL is removed from each well in row G of each MIC 2000 plate. • 7. 100 μL of 2× the final inhibitor concentration wanted (in MHBII+1% DMSO) is added to all wells in column 1 of the microtiter plates. • 8. 100 μL is serially diluted from column 1 to column 11 of each MIC 2000 plate. • 9. 100 μL is removed from each well in column 11 of each MIC 2000 plate. • 10. Plates are then inoculated with an overnight growth (in TSB) of the strain to be tested using an MIC 2000 inoculator. • 11. Plates are left at 37° C. for about 20 hours and scored for growth by eye.\nSynergy may be expressed as a ratio of the minimum inhibitory concentration (MIC) of an antibiotic tested in the absence of a β-lactamase inhibitor to the MIC of the same antibiotic tested in the presence of the β-lactamase inhibitor. […] Alternatively, the synergy effect may be expressed as a factor, again, utilizing a concentration of the BLI to lower the MIC of the antibiotic.\nRepresentative compounds of the present invention display a synergy effect. For example, the compounds of Examples 1 to 20 were determined to have 2× synergy concentrations in a range of from about 100 μM or less."}, "[3]": {"conditions": "P. aeruginosa AmpC IC50, 40 min preincubation"}, "[4]": {"conditions": "40 min preincubation, read-out: P. aeruginosa AmpC IC50"}},
  "note": "pIC50: −log10 of the molar value. Where two headings read alike, the source gives them in different places.",
  "data": [
    {"molecule": "O=C(NC1CCCCNCC1)N1CC[C@@H]2[C@H]1C(=O)N2S(=O)(=O)O", "note": "(single isomer, unassigned; isomer b) [Example 18]", "values": [
      {"measurement": "pIC50", "setting": "[1]; [3]", "value": 4.60},
      {"measurement": "In Vitro 2X Synergy CL5701", "setting": "[2]", "value": 12.5, "unit": "µM"},
      {"measurement": "In Vitro 8X Synergy CL5701", "setting": "[2]", "value": ">100", "unit": "µM"},
      {"measurement": "In Vitro 16X Synergy CL5701", "setting": "[2]", "value": ">100", "unit": "µM"}
    ]},
    {"molecule": "O=C(NC1CCCCCC1)N1CC[C@@H]2[C@H]1C(=O)N2S(=O)(=O)O", "note": "[Example 3]", "values": [
      {"measurement": "pIC50", "setting": "[1]; [3]", "value": 6.40},
      {"measurement": "In Vitro 2X Synergy CL5701", "setting": "[2]", "value": 100, "unit": "µM"},
      {"measurement": "In Vitro 8X Synergy CL5701", "setting": "[2]", "value": ">100", "unit": "µM"},
      {"measurement": "In Vitro 16X Synergy CL5701", "setting": "[2]", "value": ">100", "unit": "µM"}
    ]},
    {"molecule": "O=C(N[C@@H]1CCCNCC1)N1CC[C@@H]2[C@H]1C(=O)N2S(=O)(=O)O", "note": "[Example 2]", "values": [
      {"measurement": "pIC50", "setting": "[1]; [4]", "value": 5.40},
      {"measurement": "In Vitro 2X Synergy CL5701", "setting": "[2]", "value": 3.1, "unit": "µM"},
      {"measurement": "In Vitro 8X Synergy CL5701", "setting": "[2]", "value": 25, "unit": "µM"},
      {"measurement": "In Vitro 16X Synergy CL5701", "setting": "[2]", "value": 100, "unit": "µM"}
    ]},
    {"molecule": "O=C(N[C@H]1CCCNCC1)N1CC[C@@H]2[C@H]1C(=O)N2S(=O)(=O)O", "note": "[Example 1]", "values": [
      {"measurement": "pIC50", "setting": "[1]; [4]", "value": 5.92},
      {"measurement": "In Vitro 2X Synergy CL5701", "setting": "[2]", "value": 2.3, "unit": "µM"},
      {"measurement": "In Vitro 16X Synergy CL5701", "setting": "[2]", "value": 25, "unit": "µM"}
    ]},
    {"molecule": "O=C(N[C@H]1CNCCOC1)N1CC[C@@H]2[C@H]1C(=O)N2S(=O)(=O)O", "note": "[Example 8, (1S,5R)-2-{[(6S)-1,4-Oxazepan-6-ylamino]carbonyl}-7-oxo-2,6-diazabicyclo[3.2.0]heptane-6-sulfonic acid]", "values": [
      {"measurement": "pIC50", "setting": "[1]; [4]", "value": 5.96},
      {"measurement": "In Vitro 2X Synergy CL5701", "setting": "[2]", "value": 6.3, "unit": "µM"},
      {"measurement": "In Vitro 8X Synergy CL5701", "setting": "[2]", "value": 50, "unit": "µM"},
      {"measurement": "In Vitro 16X Synergy CL5701", "setting": "[2]", "value": 100, "unit": "µM"}
    ]},
    {"molecule": "O=C(N[C@@H]1CNCCOC1)N1CC[C@@H]2[C@H]1C(=O)N2S(=O)(=O)O", "note": "[Example 7, (1S,5R)-2-{[(6R)-1,4-Oxazepan-6-ylamino]carbonyl}-7-oxo-2,6-diazabicyclo[3.2.0]heptane-6-sulfonic acid]", "values": [
      {"measurement": "pIC50", "setting": "[1]; [4]", "value": 6.22},
      {"measurement": "In Vitro 2X Synergy CL5701", "setting": "[2]", "value": 6.3, "unit": "µM"},
      {"measurement": "In Vitro 8X Synergy CL5701", "setting": "[2]", "value": 25, "unit": "µM"},
      {"measurement": "In Vitro 16X Synergy CL5701", "setting": "[2]", "value": 100, "unit": "µM"}
    ]},
    {"molecule": "O=C(NC1CCCCNCC1)N1CC[C@@H]2[C@H]1C(=O)N2S(=O)(=O)O", "note": "(single isomer, unassigned; isomer a) [Example 17]", "values": [
      {"measurement": "pIC50", "setting": "[1]; [3]", "value": 5.89},
      {"measurement": "In Vitro 2X Synergy CL5701", "setting": "[2]", "value": 3.1, "unit": "µM"},
      {"measurement": "In Vitro 8X Synergy CL5701", "setting": "[2]", "value": 12.5, "unit": "µM"},
      {"measurement": "In Vitro 16X Synergy CL5701", "setting": "[2]", "value": 50, "unit": "µM"}
    ]},
    {"molecule": "O=C(NC1CCNCC1)N1CC[C@@H]2[C@H]1C(=O)N2S(=O)(=O)O", "note": "[Compound A, reference compound]", "values": [
      {"measurement": "pIC50", "setting": "[1]; [3]", "value": 5.17},
      {"measurement": "In Vitro 2X Synergy CL5701", "setting": "[2]", "value": 3.7, "unit": "µM"},
      {"measurement": "In Vitro 8X Synergy CL5701", "setting": "[2]", "value": 21, "unit": "µM"},
      {"measurement": "In Vitro 16X Synergy CL5701", "setting": "[2]", "value": 67, "unit": "µM"}
    ]}
  ]
}
